Reference: patent publication US8906393B2, “Biofilm inhibiting composition” (Rutgers, The State University of New Jersey, priority 2011, dated 2014)

Tests used:
S. aureus strain SH1000 = assay: Biofilm inhibition assay (96-well microtiter plate crystal violet binding); assay type: cell-based, Staphylococcus aureus
Method: (§1) Biofilm inhibition assay. Biofilms were cultured in 96-well polystyrene microtiter plates as previously described. Briefly, cells were diluted to 104 to […] CFU/ml in TSB supplemented with 0.1 vol of PAM extract, or 0.1 vol of water as a control. Aliquots of cells (200 μl each) were transferred to the wells of a microtiter plate, and the plate was incubated at 37° C. for 18 h. Biofilms were washed with water and stained for 1 min with 200 μl of Gram's crystal violet. Stained biofilms were rinsed with water and dried. The amount of crystal violet binding was quantitated by destaining the biofilms for 10 min with 200 μl of 33% acetic acid, and then measuring the absorbance of the crystal violet solution at 595 nm. All assays were performed 3-5 times with similarly significant decreases in absorbance values.
Expressing the K. kingae pam genes in E. coli. Plasmids pGEM-T, pMB10, pMB5 and pMB9 were transformed into E. coli strain JM109. Transformants were selected on agar supplemented with 50 μg/ml ampicillin. Lawns of transformants were grown on agar plates supplemented with 50 μg/ml ampicillin and 1 mM IPTG. Lawns were harvested and cell-free extracts were prepared by ultracentrifugation as described above. Extracts were sterilized by passage through a 0.22-μm filter, incubated at 100° C. for 15 min, and then tested for activity in the biofilm inhibition assay described above.

K. kingae = assay: Biofilm inhibition assay (96-well microtiter plate); assay type: cell-based, Kingella kingae; conditions: K. kingae PYKK181; crystal violet
Method: as §1

K. pneumoniae = assay: as above; assay type: cell-based, Klebsiella pneumoniae; conditions: K. pneumoniae 1840; crystal violet
Method: as §1

Measured: biofilm-inhibiting activity of purified PAM galactan

→3)-β-D-Galf-(1→6)-β-D-Galf-(1→ [PAM galactan]
exhibited biofilm-inhibiting activity: all assays above
